The test system of this experiment is spontaneously hypertensive rats (SHR). In words: Test for inhibiting hypertension in rats (systolic BP at the tail pulse), SHR. It is filed as in vivo. To be noted: for changes in blood pressure (inhibition of hypertension): male SHR, oral once a day for 8 weeks, quercetin 0.3-2.7 mg/day/kg and/or arginine 0.03-0.15 mg/day/kg, FIG. 2. Here is the method:
Quercetin was extracted by adding 100 g of washed onion skins to 10 liters of water heated to 80° C., and impurities were removed to obtain quercetin-containing solution. The amount of quercetin contained in the quercetin-containing solution was 0.1 mg/ml. The quercetin-containing solution was appropriately concentrated with an evaporator.
11 week old male spontaneously hypertensive rats (SHR) were divided into A to I groups (9 groups consisting of 5 rats per group) and 11 week old male normotensive Wistar Kyoto (WKY) rats were divided into J to L groups (3 groups consisting of 5 rats per group) so that averages of weight and blood pressure (BP) of the respective groups were nearly equal. They were pre-bred in each breeding cage at 22.0±1.0° C. temperature, 60±10% of humidity and 12 hour light-dark cycles for a week while taking feeds and water ad libitum.
After the pre-breeding period, they were bred with the same conditions for 8 weeks. The quercetin-containing solution obtained in the above-mentioned preparation method and commercially-available arginine powder (produced by Ajinomoto Co., Inc.) were blended together so that amounts of quercetin and arginine would be the respective amounts in Table 7, below. Each mixture was orally administered to the rats in each group once a day. The rats took feed and water ad libitum during the test.
The blood pressure (BP) of rats was measured once a week. After each rat was warmed and climatized itself in a warmer at 38° C. for a few minutes, a systolic BP at the tail pulse was measured with an automatic sphygmomanometer (BP-98A; Softron Co., Ltd.) In each rat, the BP was measured for three times per one measurement and an average of the three measured values was recorded.

Results on three compounds are retold here after patent US20090197942A1, “Method For Producing Polyphenol-Rich Composition” (KYUSAI CO., LTD., priority 2006, published 2009).

For the compound `O=c1c(O)c(-c2ccc(O)c(O)c2)oc2cc(O)cc(O)c12` [purified quercetin, quercetin], for the setting “same test, purified quercetin used instead of the quercetin-containing solution”, the “inhibition of hypertension with purified quercetin instead of quercetin-containing solution” value is “a similar result can be achieved”. As to `N=C(N)NCCC[C@H](N)C(=O)O` [arginine], the “changes in blood pressure (inhibition of hypertension)” value is “hypertensions were inhibited”.

As for `O=c1c(O)c(-c2ccc(O)c(O)c2)oc2cc(O)cc(O)c12` [quercetin], the “changes in blood pressure (inhibition of hypertension)” value is on record as “hypertensions were inhibited”.
